Results from publication PMC8536575, “Acute effects of the imidacloprid metabolite desnitro-imidacloprid on human nACh receptors relevant for neuronal signaling” (Archives of Toxicology, 2021).
Blank lines part the entries; values can stand above or below the molecule they belong to.

What was measured:
[1] = tested on: nAChRs on LUHMES neurons; set-up: method as in Loser et al. [2021a]; details: ref Loser et al. [2021a]; cited from earlier work
[2] = target: T1, human α4β2 (HS) nAChR (Homo sapiens, UniProt P17787+P43681); assay: Two-electrode voltage-clamp recordings, Xenopus laevis oocytes expressing human α4β2 (HS) nAChR; type: cell-based
T1 construct: expressed in transfected cells; host or cells: Xenopus laevis oocytes (EcoCyte Bioscience), mRNA injection, 3 ng α4 and 30 ng β2

[3] = target: T2, human α7 nAChR (Homo sapiens, UniProt P36544); assay: Two-electrode voltage-clamp recordings, Xenopus laevis oocytes expressing human α7 nAChR; type: cell-based; details: for inward currents: tested up to 100 µM range
T2 construct: expressed in transfected cells; host or cells: Xenopus laevis oocytes, injection of 30 ng mRNA (pCDNA3.1, T7 transcript)

[4] = target: T3, human α3β4 nAChR (Homo sapiens, UniProt P30926+P32297); assay: Two-electrode voltage-clamp recordings, Xenopus laevis oocytes expressing human α3β4 nAChR; type: cell-based
T3 construct: expressed in transfected cells; host or cells: Xenopus laevis oocytes, mRNA injection, 0.33 ng α3 and 3.33 ng β4

[5] = target: T4, human α4β2 (LS) nAChR (Homo sapiens, UniProt P17787+P43681); assay: Two-electrode voltage-clamp recordings, Xenopus laevis oocytes expressing human α4β2 (LS) nAChR; type: cell-based; details: tested concentration range ≤ 100 µM
T4 construct: expressed in transfected cells; host or cells: Xenopus laevis oocytes, mRNA injection, 10 ng α4 and 1 ng β2
From the text: (§1) The human α7 nAChR subunit was cloned in the pCDNA3.1 vector.
(§2) For the generation of the mRNA for injection, the plasmid DNAs of α3, α4, β2, and β4 were linearized with the NotI restriction endonuclease (New England Biolabs) and the plasmid DNA of α7 was linearized with the XbaI restriction endonuclease (New England Biolabs). The mRNAs of α3, α4, β2, and β4 were generated by in vitro transcription using the mMESSAGE mMACHINE SP6 Transcription Kit (Invitrogen). For the generation of α7 mRNA, the mMESSAGE mMACHINE T7 Transcription Kit (Invitrogen) was used. For the separation of the DNA and mRNA, a phenol–chloroform extraction (Chomczynski and Sacchi [2006]) was performed. The mRNA was then obtained by ethanol precipitation from the aqueous phase; for quantification, the BioPhotometer (Eppendorf) was used.
(§3) The recordings of human α7, α3β4, α4β2, and α4β4 nAChRs expressed in Xenopus laevis oocytes (EcoCyte Bioscience) were performed in two-electrode voltage-clamp mode using the Roboocyte2 system and the corresponding software (version 1.4.1; Multi Channel Systems MCS). Prior to the recordings, the oocytes were maintained at 19 °C in modified Barth’s solution containing [mM]: 88 NaCl, 1 KCl, 0.33 Ca(NO3)2, 0.82 MgSO4, 2.4 NaHCO3, 0.41 CaCl2, 5 Tris, 100 U/ml penicillin, 100 µg/ml streptomycin, pH 7.4.
(§4) To express human α7 nAChR, we injected 50 nl of mRNA solution (30 ng mRNA) per oocyte, using the Roboinject and the corresponding software (version 1.2.1; Multi Channel Systems MCS). […]
(§5) The baseline correction of voltage-clamp oocyte recordings was performed with the Roboocyte2 + software (version 1.4.3; Multi Channel Systems MCS, Germany). The maximal current influx and further analysis were executed in scripts written in R. In the antagonist experiments with oocytes, the maximal inward current was determined for the last response of each period (control, three antagonist concentrations, and washout).

[6] = target: T5, human α4β4 nAChR (Homo sapiens, UniProt P30926+P43681); assay: Two-electrode voltage-clamp recordings, Xenopus laevis oocytes expressing human α4β4 nAChR; type: cell-based; details: tested concentration range ≤ 100 µM
T5 construct: expressed in transfected cells; host or cells: Xenopus laevis oocytes, mRNA injection, 3.33 ng α4 and 3.33 ng β4
From the text: as §1, §2, §3, §4, §5

[7] = tested on: mice; details: ref Chao and Casida [1997], cited from earlier work
[8] = tested on: nAChRs on LUHMES neurons; assay: High-throughput Ca2+-imaging of LUHMES neurons (agonist effect); type: cell-based, human
Protocol: For Ca^2+-imaging, the cells were pre-differentiated for 48 h in cell culture flasks, detached and plated at a density of 20,000 cells and 30,000 cells per well on 0.1% PEI-coated 384-well and 96-well plates (Greiner Bio-One), respectively, for the Ca^2+-imaging. The cells were further differentiated for another 7 days. 50% of the medium was exchanged every 2–3 days.
(§6) Ca^2+-imaging was performed using HT Functional Drug Screening System FDSS/µCELL (Hamamatsu Photonics) at nominal 37 °C. The FDSS/µCell system enables the indirect recording of changes of [Ca^2+]i via a Ca^2+-sensitive fluorescent dye. The fluorescence signal of a complete 384-well plate is acquired at once with a high-speed and high-sensitivity digital ImagEM X2 EM-CCD camera (Electron Multiplying Charge-Coupled Device, Hamamatsu Photonics), but with limited spatial resolution. Therefore, the software only determines the mean fluorescence signal of each well rather than of individual cells. For compound application, the integrated dispenser head with 384 pipette tips was used, which can add the test compound to all wells simultaneously. Cells were preincubated with Cal-520 AM (AAT Bioquest) at a concentration of 1 µM for 1 h at 37 °C. For recording, the medium was exchanged by a buffer solution containing [mM]: 135 NaCl, 5 KCl, 0.2 MgCl2, 2.5 CaCl2, 10 HEPES, and 10 D-glucose, pH 7.4. Test compound application was executed after obtaining a 1.5 min baseline recording. Where applicable, a second application was executed 4.5 min after the first application. The total recording never exceeded 8 min.
(§7) For the high-throughput Ca^2+-imaging data obtained in LUHMES cells, an offset correction using the FDSS software (version 3.2) was performed. Afterward, the data were exported and further analyzed with scripts written in R (version 3.6.3) (R Core Team [2020]). The concentration–response curves were fitted using a log-logistic model described by Ritz et al. ([2015]), utilizing the R package drc with its function drm() and LL2.2() with the following equation: f(x) = d/[1 + exp(b(log(x) − ẽ))] (Ritz et al. [2015]). The logarithm of the half-maximal effective concentration (logEC50) between 0 and the upper limit (d), which was set to 1, is represented by ẽ, x denotes the concentration, and b stands for the slope parameter (Ritz et al. [2015]). In cases with normalizations to responses induced by other compounds, the function LL2.3() was used with a variable upper limit (d; Ritz et al. [2015]). The same equation was used to determine the half-maximal inhibitory concentration (logIC50). Then the logEC50 and logIC50 values were converted into the pIC50 and pEC50 values, which are the negative logarithms to base 10.

[9] = tested on: nAChRs on LUHMES neurons; assay: Desensitization of nAChR agonist-evoked [Ca2+]i responses of LUHMES neurons; type: cell-based, human; details: pretreatment […], 3 µM nicotine
Protocol: as §6, §7
Fig. 4 Desensitizing effects of DN-IMI and IMI-olefin on nAChRs. LUHMES neurons differentiated in 384-well plates were pretreated with various concentrations of DN-IMI or IMI-olefin for 4.5 min before different nAChR agonists were applied and [Ca^2+]i signals were recorded. […] Note the treatment scheme (upper right corner), illustrating the experimental design. […] Note the treatment scheme (upper right corner), illustrating the experimental design. Detailed data on n numbers are found in Table S6

[10] = tested on: nAChRs on LUHMES neurons; assay: Inhibition of DN-IMI-evoked [Ca2+]i responses of LUHMES neurons by nAChR antagonists; type: cell-based, human; details: for pIC50 for inhibition of DN-IMI-induced [Ca2+]i response: antagonist pretreatment, DN-IMI 0.5 µM
Protocol: as §6, §7
LUHMES neurons differentiated in 384-well plates were pretreated with various concentrations of nAChR antagonists before DN-IMI (0.5 µM) was applied in Ca^2+-imaging experiments. […] Note the treatment scheme (upper right corner), illustrating the experimental design. […] Detailed data on n numbers are found in Table S6

[11] = tested on: nAChRs on SH-SY5Y cells; assay: Inhibition of DN-IMI-evoked [Ca2+]i response of SH-SY5Y cells by mecamylamine; type: cell-based, human; details: Mec 125 µM, presence of PNU (10 µM)
[12] = tested on: human α3β2 nAChRs; set-up: method as in Chavez-Noriega et al. [2000]; details: ref Chavez-Noriega et al. [2000]; cited from earlier work
[13] = in vitro; details: human, hepatocytes
From the text: Renal clearance for DN-IMI was assumed to be governed only by passive processes, with both filtration and passive reabsorption being accounted for. Passive permeability was scaled from the predicted permeability in the intestine (Peff 0.37 10-4 cm/s) accounting for the surface area of the proximal tubules in the kidney.

[14] = from curve-fitted concentration–response data

T1 sequence (P43681 27-627): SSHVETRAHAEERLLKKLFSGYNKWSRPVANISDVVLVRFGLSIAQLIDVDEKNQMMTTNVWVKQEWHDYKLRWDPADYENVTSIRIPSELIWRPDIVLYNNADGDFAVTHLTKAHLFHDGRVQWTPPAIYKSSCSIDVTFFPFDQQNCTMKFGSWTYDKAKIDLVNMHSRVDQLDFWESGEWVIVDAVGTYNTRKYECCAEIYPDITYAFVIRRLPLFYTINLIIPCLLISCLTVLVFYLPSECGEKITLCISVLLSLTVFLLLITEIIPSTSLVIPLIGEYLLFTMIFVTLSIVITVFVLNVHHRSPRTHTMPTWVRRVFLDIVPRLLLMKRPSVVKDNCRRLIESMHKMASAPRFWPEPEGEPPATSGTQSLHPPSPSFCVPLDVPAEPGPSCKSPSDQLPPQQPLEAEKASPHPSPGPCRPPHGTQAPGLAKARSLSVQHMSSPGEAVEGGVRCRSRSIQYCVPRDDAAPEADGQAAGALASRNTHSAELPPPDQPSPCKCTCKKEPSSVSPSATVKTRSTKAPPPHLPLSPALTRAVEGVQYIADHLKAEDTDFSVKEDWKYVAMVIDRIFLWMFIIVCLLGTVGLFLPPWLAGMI
T1 sequence (P17787 26-502): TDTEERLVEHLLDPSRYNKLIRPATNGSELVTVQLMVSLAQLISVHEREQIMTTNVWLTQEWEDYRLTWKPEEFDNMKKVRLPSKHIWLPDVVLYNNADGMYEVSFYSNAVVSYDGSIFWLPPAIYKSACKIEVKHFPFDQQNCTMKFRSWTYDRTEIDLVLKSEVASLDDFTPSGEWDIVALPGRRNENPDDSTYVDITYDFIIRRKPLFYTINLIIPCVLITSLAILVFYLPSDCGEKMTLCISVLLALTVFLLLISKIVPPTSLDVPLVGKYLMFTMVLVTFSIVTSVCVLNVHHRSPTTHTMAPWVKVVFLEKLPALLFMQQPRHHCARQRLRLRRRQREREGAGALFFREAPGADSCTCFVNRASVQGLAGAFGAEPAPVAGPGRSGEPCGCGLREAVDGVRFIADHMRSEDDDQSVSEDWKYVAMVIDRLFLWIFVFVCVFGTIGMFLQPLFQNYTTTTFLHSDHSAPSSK
T3 sequence (P32297 32-505): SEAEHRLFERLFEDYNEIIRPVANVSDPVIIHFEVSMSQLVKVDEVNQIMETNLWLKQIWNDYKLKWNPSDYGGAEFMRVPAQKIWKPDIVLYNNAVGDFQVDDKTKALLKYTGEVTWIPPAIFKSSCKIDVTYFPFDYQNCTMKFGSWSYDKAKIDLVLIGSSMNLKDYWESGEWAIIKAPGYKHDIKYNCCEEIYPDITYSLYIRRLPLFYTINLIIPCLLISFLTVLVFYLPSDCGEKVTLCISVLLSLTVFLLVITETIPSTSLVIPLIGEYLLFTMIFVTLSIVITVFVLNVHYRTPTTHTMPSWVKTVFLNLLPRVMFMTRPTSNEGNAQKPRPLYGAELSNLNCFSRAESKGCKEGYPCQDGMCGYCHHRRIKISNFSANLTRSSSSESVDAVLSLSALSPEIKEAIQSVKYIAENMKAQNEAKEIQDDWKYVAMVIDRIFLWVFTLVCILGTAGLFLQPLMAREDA
T3 sequence (P30926 22-498): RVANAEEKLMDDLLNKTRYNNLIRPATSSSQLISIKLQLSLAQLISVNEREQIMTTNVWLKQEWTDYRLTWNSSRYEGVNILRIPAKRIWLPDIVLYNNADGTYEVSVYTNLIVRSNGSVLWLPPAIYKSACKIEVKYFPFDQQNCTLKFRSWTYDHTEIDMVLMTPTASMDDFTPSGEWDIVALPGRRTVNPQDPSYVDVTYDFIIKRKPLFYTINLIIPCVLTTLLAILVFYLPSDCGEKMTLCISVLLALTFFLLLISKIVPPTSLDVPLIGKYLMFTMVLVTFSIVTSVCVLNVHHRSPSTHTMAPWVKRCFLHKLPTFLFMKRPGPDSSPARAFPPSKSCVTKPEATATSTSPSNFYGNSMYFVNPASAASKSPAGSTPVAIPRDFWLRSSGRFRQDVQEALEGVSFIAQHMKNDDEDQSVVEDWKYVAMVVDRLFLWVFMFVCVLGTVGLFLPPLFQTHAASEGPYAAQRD
T2 sequence (P36544 23-502): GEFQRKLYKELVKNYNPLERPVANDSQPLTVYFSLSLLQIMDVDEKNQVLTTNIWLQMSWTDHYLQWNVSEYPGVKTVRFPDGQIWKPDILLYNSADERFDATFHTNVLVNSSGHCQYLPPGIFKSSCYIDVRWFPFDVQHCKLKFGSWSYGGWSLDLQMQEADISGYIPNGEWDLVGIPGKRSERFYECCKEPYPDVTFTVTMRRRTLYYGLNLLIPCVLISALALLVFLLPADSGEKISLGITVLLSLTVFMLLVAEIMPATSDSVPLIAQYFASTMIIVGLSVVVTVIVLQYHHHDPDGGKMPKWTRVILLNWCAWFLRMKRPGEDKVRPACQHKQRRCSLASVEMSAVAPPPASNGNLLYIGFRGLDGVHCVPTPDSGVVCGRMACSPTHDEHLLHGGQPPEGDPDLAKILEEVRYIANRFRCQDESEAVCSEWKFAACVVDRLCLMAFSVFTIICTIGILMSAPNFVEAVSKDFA
T5 sequence (P43681 27-627): as the sequence (P43681 27-627) above
T5 sequence (P30926 22-498): as the sequence (P30926 22-498) above
T4 sequence (P43681 27-627): as the sequence (P43681 27-627) above
T4 sequence (P17787 26-502): as the sequence (P17787 26-502) above

Structure (SMILES): CC(=O)OCC[N+](C)(C)C [ACh, Acetylcholine chloride]
pEC50 in LUHMES neurons [1]: ~ 6.0

Structure (SMILES): O=[N+]([O-])NC1=NCCN1Cc1ccc(Cl)nc1 [IMI, imidacloprid]
activation of the receptor ([2]; tested concentration range ≤ 100 µM): did not trigger a concentration-dependent activation
inward currents [3]: significant inward currents but with a lower potency and efficacy than DN-IMI
inward currents ([4]; concentration-dependent, up to 100 µM): small but significant inward currents
activation of the receptor [5]: did not trigger a concentration-dependent activation
activation of the receptor [6]: did not trigger a concentration-dependent activation
LD50 ([7]; Tomizawa et al. [2000], [2001]): 35 to 50 mg/kg

Structure (SMILES): O=[N+]([O-])Nc1nccn1Cc1ccc(Cl)nc1 [IMI-olefin, imidacloprid-olefin]
pEC50 of [Ca2+]i response (peak amplitude) ([8]; LUHMES neurons, absence of PNU, normalized to the maximal response stimulated by DN-IMI, tested ≤ 100 µM): not reached within the measurement range
pEC50 of [Ca2+]i response in the presence of PNU ([8]; PNU 10 µM, normalized to maximal response to IMI-olefin in presence of PNU): 5.5
response as % of the maximal response to DN-IMI ([8]; at 30–100 µM): around 15%
pIC50 for desensitization of the nicotine-evoked response [9]: 4.9
inward currents [3]: significant inward currents but with a lower potency and efficacy than DN-IMI
lethality ([7]; highest tested dose of 50 mg/kg): no lethality

pIC50 for inhibition of DN-IMI-induced [Ca2+]i response [10]: 6.8 ± 0.03
Structure (SMILES): CC[N+](CC)(CC)CCOc1ccc(/C=C/c2ccccc2)cc1 [MG 624]

Structure (SMILES): CCN1C[C@]2(COC(=O)c3ccccc3N3C(=O)C[C@H](C)C3=O)CC[C@H](OC)[C@@]34[C@@H]5C[C@H]6[C@H](OC)[C@@H]5[C@](O)(C[C@@H]6OC)[C@@](O)([C@@H](OC)[C@H]23)[C@@H]14 [MLA, Methyllycaconitine, reference compound]
pIC50 for inhibition of DN-IMI-induced [Ca2+]i response [10]: 6.8 ± 0.03
block of DN-IMI-triggered inward current ([3]; DN-IMI 30 µM): concentration-dependently and reversibly blocked

pIC50 for inhibition of DN-IMI-induced [Ca2+]i response [10]: 6.8 ± 0.03
Structure (SMILES): CNC1(C)C2CCC(C2)C1(C)C (stereo not shown) [Mec, Mecamylamine]
block of DN-IMI-triggered inward current ([2]; DN-IMI 1 µM): concentration-dependently and reversibly blocked
block of DN-IMI-induced [Ca2+]i response in SH-SY5Y [11]: strongly blocked
pIC50, literature data for human α3β2 nAChRs [12]: 6.6

Structure (SMILES): COc1cc2c3cc1Oc1cc(ccc1O)C[C@@H]1c4c(cc(OC)c(O)c4Oc4ccc(cc4)C[C@@H]3N(C)CC2)CC[N+]1(C)C [Tubo, (+)-Tubocurarine chloride pentahydrate]
pIC50 for inhibition of DN-IMI-induced [Ca2+]i response [10]: 5.9
block of DN-IMI-evoked response ([10]; at 100 µM): completely blocked
block of DN-IMI-triggered inward current ([4]; DN-IMI 30 µM): concentration-dependently and reversibly blocked

Structure (SMILES): CN1CCC[C@H]1c1cccnc1 [nicotine, (-)-Nicotine, reference compound]
higher potency on α4β2 (HS) nAChR than on other subtypes ([2]; comparison of EC25 values, α4β2 (HS) vs α7 and α3β4): > 2 log-step
absolute EC25 [2, 14]: 0.17 µM
absolute EC25 [3, 14]: 30.2 µM
estimated maximum ([3]; normalized to nicotine (1 mM)): ~ 1
absolute EC25 [4, 14]: 27.5 µM
estimated maximum ([4]; normalized to nicotine (1 mM)): ~ 1
pEC50 in LUHMES neurons [1]: ~ 6.0

hepatocyte CLint [13]: 379 µL/min/1e6 cells
Structure (SMILES): C[C@]12C=CC(=O)C=C1CC[C@@H]1[C@@H]2[C@@H](O)C[C@@]2(C)[C@H]1CC[C@]2(O)C(=O)CO [prednisolone, reference compound]
